Entries after “also recorded” stand apart in the source; their conditions may differ.

Assay [1] deals with T1, human TLR9 (Homo sapiens, UniProt Q9NR96).
T1 construct: expressed in transfected cells; host or cells: HEK293 (ATCC No. CRP-1573 [sic])
T1 sequence (Q9NR96 26-1032): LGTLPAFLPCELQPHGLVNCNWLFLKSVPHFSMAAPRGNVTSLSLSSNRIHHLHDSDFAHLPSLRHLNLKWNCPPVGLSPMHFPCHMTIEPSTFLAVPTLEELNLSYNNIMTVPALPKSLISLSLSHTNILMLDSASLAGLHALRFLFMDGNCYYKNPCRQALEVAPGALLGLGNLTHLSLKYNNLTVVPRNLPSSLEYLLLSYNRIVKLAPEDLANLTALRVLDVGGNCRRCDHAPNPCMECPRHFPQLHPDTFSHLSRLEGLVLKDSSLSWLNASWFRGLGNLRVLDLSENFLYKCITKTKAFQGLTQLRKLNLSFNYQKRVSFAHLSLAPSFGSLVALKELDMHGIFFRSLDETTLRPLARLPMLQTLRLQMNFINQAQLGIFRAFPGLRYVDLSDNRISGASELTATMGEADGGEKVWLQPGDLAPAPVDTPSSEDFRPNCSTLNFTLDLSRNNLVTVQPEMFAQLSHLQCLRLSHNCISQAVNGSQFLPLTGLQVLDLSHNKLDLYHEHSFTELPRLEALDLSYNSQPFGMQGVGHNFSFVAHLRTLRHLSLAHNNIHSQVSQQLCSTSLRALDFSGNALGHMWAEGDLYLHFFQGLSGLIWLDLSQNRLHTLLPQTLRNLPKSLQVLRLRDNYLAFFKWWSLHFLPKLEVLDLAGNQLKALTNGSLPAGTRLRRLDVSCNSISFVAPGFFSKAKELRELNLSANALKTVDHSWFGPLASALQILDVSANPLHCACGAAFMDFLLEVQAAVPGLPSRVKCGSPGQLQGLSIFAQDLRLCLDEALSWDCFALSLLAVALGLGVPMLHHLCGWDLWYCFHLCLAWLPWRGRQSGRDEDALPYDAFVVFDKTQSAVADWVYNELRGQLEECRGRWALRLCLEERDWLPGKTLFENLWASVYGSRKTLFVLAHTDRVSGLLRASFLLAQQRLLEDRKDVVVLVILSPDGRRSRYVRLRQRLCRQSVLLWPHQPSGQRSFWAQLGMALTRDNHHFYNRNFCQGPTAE
As to the kind of experiment: Primary assay: HEK/TLR9 activation (NF-kB luciferase reporter, Oligo CpG 2006 stimulation). It counts as cell-based. The conditions noted are these: HEK293 transfected with human TLR9 and NF-kB luciferase; compound 30 min before Oligo CpG 2006; overnight; read-out: HEK/TLR9 IC50. The source says: A. Primary Assay. The primary assay involved transfecting human embryonic kidney epithelial (HEK) cells with TLR9. More specifically, HEK293 […] cells (ATCC No. CRP-1573, American Type Culture Collection, Manassas, Va.) were transfected with pcDNA3.1D/V5-His-TOPO® plasmid (Invitrogen, Carlsbad, Calif.) encoding human TLR9 (directly inserted as a Tag polymerase-amplified PCR product) and firefly luciferase under the control of three NF-kB binding sites contained in the E-selectin-1 promoter, which was cloned into a pGL3-Enhancer Vector (Promega Corp, Madison, Wis.). Each compound was added to cells 30 min. before stimulation with Oligo CpG 2006, a synthetic phosphorothioate oligonucleotide (Hartmann et al., J Immunol. 164:1617-24 (2000)), with nucleotide sequence 5′-TCGTCGTTTTGTCGTTTTGTCGTT-3′ (SEQ ID NO:1). The cells were incubated overnight at 37° C. The luciferase substrate Steady-Glo® (Promega) was added to the wells, and luminescence was measured to determine the extent of TLR9-driven gene activation. The luminescence data was used to calculate an IC50 for each sample. The IC50 is defined as the concentration of compound that suppresses the luminescence to 50% of that observed in the absence of compound, in other words, with full stimulation.
(In general: A reporter such as luciferase makes a cellular process visible.)

The subject of assay [2] is dissociated mouse splenocytes. The assay is described as follows: Spleen CellTiter-Glo viability assay. The assay is classed as cell-based. The settings on record: Splenocyte, 72 hours, viability (ATP). On the procedure: (3) Spleen CT Glo Assay: To determine if compounds had adverse effects on living cells, dissociated mouse splenocytes were incubated with some of the compounds for 72 hours. At the end of the incubation Celliter-Glo™ reagent (Promega Corporation, Madison, Wis.) was added and luminescence was read per manufacturer's instructions. This reagent measures ATP as an indication of cell metabolism. Dead cells will not produce signal. IC50 is defined as the concentration of compound that suppresses viability to 50% of that observed in the absence of compound. The few compounds that measurably affected viability did so at concentrations far above those that affected cytokine release in response to TLR9 stimulation.

Assay [3] has as its target T2, human TLR7 (Homo sapiens, UniProt Q9NYK1).
T2 construct: expressed in transfected cells; host or cells: HEK cell line (HEK293, as in the primary assay)
T2 sequence (Q9NYK1 27-1049): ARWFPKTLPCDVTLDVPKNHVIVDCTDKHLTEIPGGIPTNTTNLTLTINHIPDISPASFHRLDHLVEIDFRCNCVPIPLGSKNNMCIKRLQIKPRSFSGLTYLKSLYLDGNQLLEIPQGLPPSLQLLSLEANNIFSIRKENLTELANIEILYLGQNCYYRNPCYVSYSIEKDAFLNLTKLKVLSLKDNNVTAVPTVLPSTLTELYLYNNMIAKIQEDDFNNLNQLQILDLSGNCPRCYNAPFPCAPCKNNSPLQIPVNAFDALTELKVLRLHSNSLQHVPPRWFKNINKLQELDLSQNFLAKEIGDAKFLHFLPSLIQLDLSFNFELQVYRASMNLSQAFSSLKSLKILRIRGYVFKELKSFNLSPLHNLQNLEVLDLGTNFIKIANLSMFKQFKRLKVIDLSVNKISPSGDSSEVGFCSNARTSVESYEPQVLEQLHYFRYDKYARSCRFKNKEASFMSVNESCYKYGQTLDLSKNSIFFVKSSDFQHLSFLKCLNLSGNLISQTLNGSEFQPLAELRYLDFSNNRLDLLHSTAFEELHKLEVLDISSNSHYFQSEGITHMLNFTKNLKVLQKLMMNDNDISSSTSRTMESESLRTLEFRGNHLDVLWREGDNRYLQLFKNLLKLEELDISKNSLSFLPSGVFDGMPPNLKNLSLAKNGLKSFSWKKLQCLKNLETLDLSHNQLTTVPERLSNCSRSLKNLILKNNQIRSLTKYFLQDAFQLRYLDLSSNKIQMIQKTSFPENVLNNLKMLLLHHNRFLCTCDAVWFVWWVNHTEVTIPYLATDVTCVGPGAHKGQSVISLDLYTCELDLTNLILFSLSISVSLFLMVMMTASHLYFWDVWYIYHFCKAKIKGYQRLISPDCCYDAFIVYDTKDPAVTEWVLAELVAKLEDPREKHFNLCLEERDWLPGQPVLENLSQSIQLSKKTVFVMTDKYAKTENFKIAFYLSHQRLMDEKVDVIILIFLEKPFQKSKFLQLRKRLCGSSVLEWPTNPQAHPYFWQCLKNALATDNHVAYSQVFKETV
As to the kind of experiment: HEK/TLR7 activation assay (R848 stimulation). It counts as cell-based. The settings on record: HEK cells transfected with human TLR7. As for the experimental part: (1) HEK/TLR7Activation Assay: The same compounds were tested in the same way as the primary assay with the following differences. The plasmid used to transfect the HEK cell line encoded for human TLR7 instead of TLR9, and R848 was used to stimulate the cells instead of Oligo CpG 2006.

In assay [4] the test system is mouse spleen IL-6 production in response to Oligo CpG 1668. The assay is described as follows: Splenocyte CpG 1668 assay (IL-6 ELISA). The assay is classed as cell-based. The conditions noted are these: mouse splenocytes, Oligo CpG 1668, 72 hrs. On the procedure:
(2) Splenocyte CpG 1668 Assay: Some of the compounds tested in the primary assay were also assayed for suppression of mouse spleen IL-6 production in response to stimulation with Oligo CpG 1668, a synthetic phosphorothioate oligonucleotide (Krieg et al. Nature. 374:546-9 (1995)), with nucleotide sequence [NT] (SEQ ID NO:2). Each compound was added to dissociated splenocytes before addition of stimulatory oligonucleotide. Cells were stimulated in culture for 72 hrs and the supernatant was removed for ELISA analysis of IL-6 level. Here the IC50 is defined as the concentration of compound that suppresses cytokine production to 50% of that observed in the absence of compound, i.e., full stimulation.

Assay [5] relates to serum IL-6 after s.c. oligo CpG 1668 challenge. As to the kind of experiment: In vivo short term CpG stimulation assay (serum IL-6). Further details: species or system mice. The conditions noted are these: Mus musculus, po, 2 h, mice, oral in water, 20 mg/kg, s.c. 30 micrograms oligo CpG 1668 within 90 minutes, serum two hours later; repeat assays separated by commas; read-out: Percent short-term IL-6 suppression. On the procedure: Short Term CpG Stimulation Assay: Compounds identified as having potency in the HEK/TLR9 and splenocyte CpG 1668 assays described in Example 9, above, were tested in an in vivo short term CpG stimulation assay. Mice were orally administered compound in water, and challenged within 90 minutes by subcutaneous (s.c.) injection of 30 micrograms of oligo CpG 1668. Two hours later serum was taken and assayed for IL-6 using ELISA analysis. Results from assays repeated on different dates are set forth as multiple numbers separated by commas.

Assay [6] deals with MRL/lpr mice. The assay is described as follows: MRL/lpr spontaneous lupus model, Experiment 2. The assay is classed as in vivo. The conditions noted are these: for serum anti-dsDNA levels: MRL/lpr mice, Experiment 2, doses per Table 4. As for the experimental part:
In this SLE experiment, dosing, groups were as described in Table 4 below. Two dose levels of Compound 23 were compared to HCQ and cyclophosphamide (Cytoxan®). HCQ and cyclophosphamide are currently used in the treatment of cutaneous and systemic lupus, respectively. […] Sera were assayed at a 1:600 dilution in PBS. (Mouse Anti-dsDNA Total Ig Qualitative ELISA kits, Alpha Diagnostic International). Dosing was conducted by either oral (p.o.) or intraperitoneal (i.p.) administration.

Take `c1cc(-c2nc3ccc(OCCCN4CCC[C@H]4CN4CCCC4)cc3o2)ccc1OCCCN1CCC[C@H]1CN1CCCC1` [Compound 24]: the IC50 was 6.4 nM in assay [1], over 10000 nM in assay [2], 600 nM in assay [3] and 8 nM in assay [4].

Regarding `COC[C@H]1CCCN1CCCOc1ccc(-c2nc3ccc(OCCCN4CCC[C@@H]4COC)cc3o2)cc1` [Compound 26], the IC50 in assay [1] was 12.4 nM; in assay [2] it was over 10000 nM; in assay [4], 42 nM. The inhibition in vivo at 20 mg/kg in assay [5] came out at 81%.

Turning to `CC(C)(CN1CCOCC1)NCCCOc1ccc(-c2nc3ccc(OCCCNC(C)(C)CN4CCOCC4)cc3o2)cc1` [Compound 10], the IC50 was determined as 15.3 nM in assay [1], 9800 nM in assay [2], 350 nM in assay [3] and 26 nM in assay [4].

With `O=P1(N(CCCl)CCCl)NCCCO1` (stereo not drawn) [Cyclophosphamide, cyclophosphamide], the “difference in serum anti-dsDNA vs. vehicle by ANOVA” value in assay [6] (8 and 12 week dosing points) was “statistically significant”. For the same compound, the “serum anti-dsDNA levels” value in assay [6] is recorded as “consistent suppression; also recorded: suppressed anti-dsDNA”.

With `CN(C)CCCOc1ccc2nc(-c3ccc(OCCCN(C)CCOCCOCCN(C)C)cc3)oc2c1` [Compound 35], the figures for the IC50 in assay [1], in assay [3] and in assay [4] were 29 nM, 1400 nM and 40 nM, respectively. Further, in assay [5], the inhibition in vivo at 20 mg/kg came out at 38%.

Turning to `CCN(CCO)CCCC(C)Nc1ccnc2cc(Cl)ccc12` (stereo not drawn) [hydroxychloroquine], the “serum anti-dsDNA levels” value in assay [6] is “no detectable effect”.

Take `CCCN(C)CCCOc1ccc(-c2nc3ccc(OCCCN(C)CCC)cc3o2)cc1` [Compound 29]: the IC50 came out at 19.3 nM in assay [1], 10400 nM in assay [2], 780 nM in assay [3] and 42 nM in assay [4].

Take `CN(C)CCCOc1ccc2nc(-c3ccc(OCCCN(C)CCCN(C)C)cc3)oc2c1` [Compound 34]: the IC50 is 4 nM in assay [1] and 800 nM in assay [3]. For the same compound, the inhibition in vivo at 20 mg/kg in assay [5] is 26%.

With `CN(C)[C@H]1CCN(CCCOc2ccc(-c3nc4ccc(OCCCN5CC[C@H](N(C)C)C5)cc4o3)cc2)C1` [Compound 17], the IC50 in assay [1] was 5.3 nM; in assay [2], over 10000 nM; in assay [3], 170 nM; in assay [4] it was 6 nM.

These data come from patent publication US8354400B2, “Benzoxazole compounds and methods of use” (Eisai R&D Co., Ltd., priority 2008, dated 2013).
